Data reported in patent publication US6361788B1, “Synergistic biocide composition” (Thor Chemie GmbH, priority 1997, dated 2002).
Like-named read-outs stand apart in the source and are kept apart here.

What was measured:
Format in all cases: cell-based
Aspergillus niger = test: MIC and synergy of MIT/BIT (1:1) and OIT in Sabouraud maltose broth, 72 h
Protocol: (§1) In all the examples in which an active substance mixture of MIT and BIT as well as additionally a further active biocidal substance was used, the weight ratio of MIT to BIT was 1:1.
(§2) The synergy index is calculated according to the method of F. C. Kull et al., Applied Microbiology, Vol. 9 (1961), p. 538. Here the synergy index is calculated using the following formula:
(§3) Synergy index SI=Qa/QA+Qb/QB.
The synergy of an active substance mixture that contains 2-n-octylisothiazolin-3-one (OIT) in addition to MIT and BIT, against the microorganism Aspergillus niger is shown as in Example 1.
(§4) The test batches contained a Sabouraud maltose broth as a nutrient medium. The spore concentration was 10^6 per mL. The incubation time was 72 h at 25° C. Each sample was incubated on an incubation shaker at 120 rpm.

Penicillium funiculosum = test: as above; conditions: for growth of the microorganism: MIT/BIT ppm = row head c0; on growth of the microorganism: key: growth of the microorganism took place (symbol '+'); or not (symbol '−')
Protocol: as §1, §2, §3
The synergy of an active substance mixture that contains OIT in addition to MIT and BIT, against the microorganism Penicillium funiculosum is shown as in Example 1.
as §4

Saccharomyces cerevisiae = test: as above
Protocol: as §1, §2, §3
The synergy of an active substance mixture that contains OIT in addition to MIT and BIT, against the microorganism Saccharomyces cerevisiae is shown as in Example 1.
The test batches contained a Sabouraud maltose broth as a nutrient medium. The cell density was 10^6 cells/mL. The incubation time was 72 h at 25° C. Each sample was incubated on an incubation shaker at 120 rpm.

Pseudomonas aeruginosa [1] = test: MIC and synergy of MIT/BIT (1:1) and OIT in Müller-Hinton broth, 144 h
Protocol: as §1, §2, §3
The synergy of an active substance mixture that contains OIT in addition to MIT and BIT, against the microorganism Pseudomonas aeruginosa is shown as in Example 1.
The test batches contained a Müller-Hinton broth as a nutrient medium. The cell density was 10^6 cells/mL. The incubation time was 144 h at 25° C. Each sample was incubated on an incubation shaker at 120 rpm.

Pseudomonas aeruginosa [2] = test: MIC and synergy of MIT/BIT (1:1) and HCHO in Müller-Hinton broth, 48 h
Protocol: as §2, §3
The test batches contained a Müller-Hinton broth as a nutrient medium. The cell density was 10^6 cells/mL. The incubation time was 48 h at 25° C. Each sample was incubated on an incubation shaker at 120 rpm.

Escherichia coli = test: as above
Protocol: as §2, §3
The test batches contained a Müller-Hinton broth as a nutrient medium. The cell density was 10^6 cells/mL. The incubation time was 48 b at 25° C. Each sample was incubated on an incubation shaker at 120 rpm.

CCCCCCCCn1sccc1=O [OIT, 2-n-octylisothiazolin-3-one]
1.00: Qb/QB (Aspergillus niger; Aspergillus niger, 72 h) | Synergy index Qa/QA + Qb/QB (Aspergillus niger; Aspergillus niger, 72 h) | Qb/QB (Penicillium funiculosum; Penicillium funiculosum, 72 h) | Synergy index Qa/QA + Qb/QB (Penicillium funiculosum; Penicillium funiculosum, 72 h) | Qb/QB (Saccharomyces cerevisiae; Saccharomyces cerevisiae, 72 h) | Synergy index Qa/QA + Qb/QB (Saccharomyces cerevisiae; Saccharomyces cerevisiae, 72 h) | Qb/QB (Pseudomonas aeruginosa [1]; Pseudomonas aeruginosa, 144 h) | Synergy index Qa/QA + Qb/QB (Pseudomonas aeruginosa [1]; Pseudomonas aeruginosa, 144 h)
900 ppm: MIC at OIT concentration Qb (Pseudomonas aeruginosa [1]; OIT share at the MIC, Pseudomonas aeruginosa, 144 h) | Total concentration MIT/BIT + OIT (Pseudomonas aeruginosa [1]; at the MIC, Pseudomonas aeruginosa, 144 h)
over 800 ppm: MIC value (Pseudomonas aeruginosa [1]; used alone, 144 h at 25° C.)
+: growth of the microorganism (Penicillium funiculosum; OIT 0.25 ppm, 72 h) | growth of the microorganism (Penicillium funiculosum; OIT 0.5 ppm, 72 h) | growth of the microorganism (Penicillium funiculosum; OIT 1 ppm, 72 h) | growth of the microorganism (Penicillium funiculosum; OIT 2.5 ppm, 72 h)
5 ppm: MIC at OIT concentration Qb (Aspergillus niger; OIT share at the MIC, Aspergillus niger, 72 h) | Total concentration MIT/BIT + OIT (Aspergillus niger; at the MIC, Aspergillus niger, 72 h) | MIC value (Aspergillus niger; used alone, 72 h at 25° C.) | MIC at OIT concentration Qb (Penicillium funiculosum; OIT share at the MIC, Penicillium funiculosum, 72 h) | Total concentration MIT/BIT + OIT (Penicillium funiculosum; at the MIC, Penicillium funiculosum, 72 h) | MIC value (Penicillium funiculosum; used alone, 72 h at 25° C.) | MIC at OIT concentration Qb (Saccharomyces cerevisiae; OIT share at the MIC, Saccharomyces cerevisiae, 72 h) | Total concentration MIT/BIT + OIT (Saccharomyces cerevisiae; at the MIC, Saccharomyces cerevisiae, 72 h) | MIC value (Saccharomyces cerevisiae; used alone, 72 h at 25° C.)
−: growth of the microorganism (Penicillium funiculosum; OIT 5 ppm, 72 h)

C=O [HCHO, formaldehyde]
300 µg/mL: MIC (Pseudomonas aeruginosa [2]; read-out: MIC at HCHO concentration Qb) | MIC (Pseudomonas aeruginosa [2]; read-out: MIC value) | MIC (Escherichia coli; 48 h, read-out: MIC at HCHO concentration Qb) | MIC (Escherichia coli; read-out: MIC value)
1.00: Qb/QB (Pseudomonas aeruginosa [2]) | Synergy index Qa/QA + Qb/QB (Pseudomonas aeruginosa [2]) | Qb/QB (Escherichia coli; 48 h) | Synergy index Qa/QA + Qb/QB (Escherichia coli; 48 h)
300 ppm: Total concentration MIT/BIT + HCHO (Pseudomonas aeruginosa [2]; at the MIC) | Total concentration MIT/BIT + HCHO (Escherichia coli; at the MIC, 48 h)
